Values of other authors as cited in patent US20230270851A1, “METHODS FOR THE TREATMENT OF IDIOPATHIC ORBITAL INFLAMMATION AND RELATED CONDITIONS” (HORIZON THERAPEUTICS IRELAND DAC, priority 2020, published 2023).

Key:
[1] = target: IGF-1R (Homo sapiens, UniProt P08069); details: A-928605: purified enzyme; INSM-18: receptor activation; cited from earlier work
[2] = target: ALK (Homo sapiens, UniProt Q9UM73); details: cited from earlier work
[3] = tested on: neuroblastoma; details: cited from earlier work
[4] = tested on: tumors; details: in vivo; cited from earlier work
[5] = cited from earlier work
[6] = target: IGF-IR (Homo sapiens, UniProt P08069); details: cited from earlier work
Sequence of IGF-IR (P08069 31-1367): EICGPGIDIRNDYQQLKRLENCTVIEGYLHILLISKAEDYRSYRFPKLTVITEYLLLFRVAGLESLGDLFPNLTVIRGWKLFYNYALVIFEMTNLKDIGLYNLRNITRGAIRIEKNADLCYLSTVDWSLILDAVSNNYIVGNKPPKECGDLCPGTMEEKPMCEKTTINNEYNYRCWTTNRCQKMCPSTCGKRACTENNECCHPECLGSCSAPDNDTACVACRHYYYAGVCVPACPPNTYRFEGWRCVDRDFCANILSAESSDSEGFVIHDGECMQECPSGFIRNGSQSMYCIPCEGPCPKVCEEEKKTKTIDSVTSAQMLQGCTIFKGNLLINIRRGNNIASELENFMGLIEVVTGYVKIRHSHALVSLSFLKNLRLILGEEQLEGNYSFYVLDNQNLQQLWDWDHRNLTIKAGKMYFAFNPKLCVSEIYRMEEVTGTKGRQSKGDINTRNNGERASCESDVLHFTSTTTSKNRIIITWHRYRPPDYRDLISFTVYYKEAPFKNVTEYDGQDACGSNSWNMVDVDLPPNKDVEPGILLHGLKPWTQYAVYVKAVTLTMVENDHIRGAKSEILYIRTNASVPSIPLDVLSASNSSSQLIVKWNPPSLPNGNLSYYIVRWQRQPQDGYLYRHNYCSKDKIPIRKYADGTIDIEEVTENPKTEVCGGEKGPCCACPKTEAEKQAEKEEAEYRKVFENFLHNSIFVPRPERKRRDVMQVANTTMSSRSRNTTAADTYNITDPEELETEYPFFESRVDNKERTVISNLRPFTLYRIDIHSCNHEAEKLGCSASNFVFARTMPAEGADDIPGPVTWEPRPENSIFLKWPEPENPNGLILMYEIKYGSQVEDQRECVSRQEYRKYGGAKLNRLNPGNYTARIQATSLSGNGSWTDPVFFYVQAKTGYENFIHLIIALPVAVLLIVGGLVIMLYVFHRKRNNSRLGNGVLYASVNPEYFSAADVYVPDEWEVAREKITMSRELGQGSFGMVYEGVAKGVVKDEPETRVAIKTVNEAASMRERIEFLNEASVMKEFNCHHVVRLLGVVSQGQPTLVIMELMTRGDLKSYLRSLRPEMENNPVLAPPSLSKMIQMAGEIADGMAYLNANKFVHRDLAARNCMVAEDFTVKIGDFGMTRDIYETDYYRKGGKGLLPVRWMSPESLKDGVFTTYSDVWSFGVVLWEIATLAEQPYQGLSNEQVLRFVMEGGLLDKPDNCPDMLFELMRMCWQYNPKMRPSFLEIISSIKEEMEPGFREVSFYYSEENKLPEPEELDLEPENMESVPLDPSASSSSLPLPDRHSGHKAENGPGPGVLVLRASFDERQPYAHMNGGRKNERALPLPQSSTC

[7] = target: c-erbB2/HER2/neu receptor (Homo sapiens, UniProt P04626); details: cited from earlier work
Sequence of c-erbB2/HER2/neu receptor (P04626 23-1255): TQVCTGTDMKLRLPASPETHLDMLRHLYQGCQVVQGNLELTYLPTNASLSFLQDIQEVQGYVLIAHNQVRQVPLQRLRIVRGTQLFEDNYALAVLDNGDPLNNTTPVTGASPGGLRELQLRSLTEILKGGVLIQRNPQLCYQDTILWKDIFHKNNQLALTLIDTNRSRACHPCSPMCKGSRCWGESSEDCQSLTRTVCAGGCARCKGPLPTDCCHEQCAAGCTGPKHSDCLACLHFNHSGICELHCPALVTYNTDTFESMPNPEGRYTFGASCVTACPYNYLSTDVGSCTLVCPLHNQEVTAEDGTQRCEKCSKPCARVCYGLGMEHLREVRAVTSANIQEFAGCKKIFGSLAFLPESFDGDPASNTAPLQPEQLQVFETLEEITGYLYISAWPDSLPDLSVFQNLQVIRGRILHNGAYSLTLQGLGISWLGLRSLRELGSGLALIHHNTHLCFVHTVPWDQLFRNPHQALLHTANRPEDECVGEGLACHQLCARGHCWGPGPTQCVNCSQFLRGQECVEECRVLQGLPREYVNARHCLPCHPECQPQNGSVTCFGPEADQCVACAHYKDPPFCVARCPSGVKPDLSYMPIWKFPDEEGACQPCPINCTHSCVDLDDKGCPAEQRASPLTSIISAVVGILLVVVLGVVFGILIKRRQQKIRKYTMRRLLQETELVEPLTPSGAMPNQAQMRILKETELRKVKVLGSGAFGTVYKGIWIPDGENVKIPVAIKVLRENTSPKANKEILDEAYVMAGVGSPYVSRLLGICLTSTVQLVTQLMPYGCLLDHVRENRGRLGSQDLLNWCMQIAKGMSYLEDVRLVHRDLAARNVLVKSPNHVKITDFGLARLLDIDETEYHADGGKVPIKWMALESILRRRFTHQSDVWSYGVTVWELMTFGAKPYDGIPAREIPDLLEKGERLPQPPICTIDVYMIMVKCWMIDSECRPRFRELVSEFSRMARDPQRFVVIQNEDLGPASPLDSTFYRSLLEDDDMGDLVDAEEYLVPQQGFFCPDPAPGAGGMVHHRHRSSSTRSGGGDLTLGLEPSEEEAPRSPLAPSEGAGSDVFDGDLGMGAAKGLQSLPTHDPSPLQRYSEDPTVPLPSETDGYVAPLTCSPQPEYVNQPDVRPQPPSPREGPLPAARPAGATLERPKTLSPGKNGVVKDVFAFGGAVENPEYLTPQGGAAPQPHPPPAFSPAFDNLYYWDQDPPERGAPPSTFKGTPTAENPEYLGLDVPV

[8] = tested on: susceptible tumor cell populations; details: cited from earlier work
[9] = tested on: IGF-1 R-overexpressing tumor cells; details: cited from earlier work

Sequence of IGF-1R (P08069 31-1367): as the sequence (P08069 31-1367) above
Sequence of ALK (Q9UM73 19-1620, species assumed): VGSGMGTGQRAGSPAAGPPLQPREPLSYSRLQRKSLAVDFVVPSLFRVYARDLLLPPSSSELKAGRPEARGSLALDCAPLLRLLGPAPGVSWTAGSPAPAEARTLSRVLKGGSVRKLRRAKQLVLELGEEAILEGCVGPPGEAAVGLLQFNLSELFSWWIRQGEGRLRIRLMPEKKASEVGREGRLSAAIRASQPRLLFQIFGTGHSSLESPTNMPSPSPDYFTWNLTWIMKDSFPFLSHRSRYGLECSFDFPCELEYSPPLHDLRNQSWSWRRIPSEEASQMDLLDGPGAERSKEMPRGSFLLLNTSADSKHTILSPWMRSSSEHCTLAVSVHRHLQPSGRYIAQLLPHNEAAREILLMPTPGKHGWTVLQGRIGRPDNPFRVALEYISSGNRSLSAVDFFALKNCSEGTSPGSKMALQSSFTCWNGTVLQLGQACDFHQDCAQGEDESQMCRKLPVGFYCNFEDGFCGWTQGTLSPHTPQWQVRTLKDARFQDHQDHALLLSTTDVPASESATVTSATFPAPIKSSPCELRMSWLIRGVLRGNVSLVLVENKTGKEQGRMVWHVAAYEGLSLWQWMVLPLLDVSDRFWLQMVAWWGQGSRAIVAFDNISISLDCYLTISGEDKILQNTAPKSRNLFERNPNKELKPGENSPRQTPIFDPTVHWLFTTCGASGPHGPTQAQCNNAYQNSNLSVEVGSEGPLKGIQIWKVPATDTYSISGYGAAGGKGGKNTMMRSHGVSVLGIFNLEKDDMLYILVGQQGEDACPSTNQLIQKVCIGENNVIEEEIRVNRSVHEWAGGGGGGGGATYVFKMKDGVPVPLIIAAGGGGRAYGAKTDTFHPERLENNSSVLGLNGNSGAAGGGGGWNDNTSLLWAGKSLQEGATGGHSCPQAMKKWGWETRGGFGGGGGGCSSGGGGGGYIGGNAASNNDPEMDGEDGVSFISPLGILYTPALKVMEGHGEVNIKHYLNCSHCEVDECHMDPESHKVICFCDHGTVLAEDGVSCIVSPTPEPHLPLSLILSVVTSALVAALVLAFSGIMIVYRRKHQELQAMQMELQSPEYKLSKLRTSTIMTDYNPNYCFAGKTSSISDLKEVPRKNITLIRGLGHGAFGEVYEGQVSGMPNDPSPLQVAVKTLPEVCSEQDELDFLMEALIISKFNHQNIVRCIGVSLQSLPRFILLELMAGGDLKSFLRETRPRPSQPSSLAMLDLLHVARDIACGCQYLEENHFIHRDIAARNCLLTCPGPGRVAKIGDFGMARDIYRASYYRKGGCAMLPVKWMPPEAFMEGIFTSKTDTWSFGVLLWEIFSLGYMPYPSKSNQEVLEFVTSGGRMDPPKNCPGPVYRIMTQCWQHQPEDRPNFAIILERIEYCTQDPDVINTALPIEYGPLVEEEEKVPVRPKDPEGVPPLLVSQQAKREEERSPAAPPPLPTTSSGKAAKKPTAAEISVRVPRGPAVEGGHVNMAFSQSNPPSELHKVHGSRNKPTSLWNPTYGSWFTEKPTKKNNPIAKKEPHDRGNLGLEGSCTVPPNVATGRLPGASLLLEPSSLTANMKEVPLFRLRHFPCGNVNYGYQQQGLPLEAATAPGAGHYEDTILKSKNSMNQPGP

COc1cc(N2CCC(N)CC2)ccc1Nc1ncc(Cl)c(-c2c[nH]c3ccccc23)n1 [AZD3463]
inhibition of IGF-1R [1]: potent | inhibition of ALK [2]: potent | apoptosis ([3]; neuroblastoma): inducing apoptosis | neuroblastoma growth ([3]; overcoming crizotinib resistance): inhibition of neuroblastoma growth

COCCN1CCN(CCn2ccc(Nc3ncc4c(n3)[C@@H](C)Cc3nn(C)c(-c5ccccc5)c3-4)n2)CC1 [BI885578]
apoptosis in tumors [4]: induction of apoptosis | cell proliferation in tumors [4]: inhibition of cell proliferation | in vivo half-life [5]: short | intestinal absorption ([5]; in vivo): rapid | metabolic clearance ([5]; in vivo): rapid

Nc1ncnc2c1c(-c1ccc3[nH]c(Cc4ccccc4Cl)nc3c1)nn2[C@H]1CC[C@H](N2CCOCC2)CC1 [Example A-928605]
inhibition of IGF-1R [1]: potent inhibitor | inhibition of intracellular IGF-IR phosphorylation [6]: potent inhibitor

C[C@H](Cc1ccc(O)c(O)c1)[C@@H](C)Cc1ccc(O)c(O)c1 [INSM-18, nordihydroguaiaretic acid]
inhibition of IGF-1R [1]: directly inhibits activation | inhibition of activation of the c-erbB2/HER2/neu receptor [7]: directly inhibits activation | proliferation of susceptible tumor cell populations [8]: decreased proliferation

CCOC(=O)N1CCC(Nc2cc(Cl)cc3c(S(=O)(=O)N4CCO[C@H](COc5ccccc5)C4)c(C(N)=O)[nH]c23)CC1 [PL-225B]
inhibition of IGF-1R [1]: selectively inhibits | tumor cell apoptosis [9]: induction of tumor cell apoptosis | tumor cell proliferation [9]: inhibition of tumor cell proliferation
